Assay: Photostability of avobenzone in combination with solvents (UV absorbance profile before and after 10 MED radiation)
Format: physicochemical
Details: avobenzone with the solvent; for Stability of Avobenzone: 10 MED radiation, solar simulator, UV absorbance 290-400 nm on PMMA plates; for Stability of avobenzone-solvent combination (UV absorbance profile after 10 MED radiation vs initial, FIG. 1 to FIG. 6): before and after 10 MED radiation
Excerpt: 10 minimal erythemal dose (MED) is a quantified dose of radiation that is known for causing skin damage. UV screening agents will eventually breakdown into smaller molecule after prolonged exposure to UV radiation. This is a common, expected phenomenon however, some UV screening agents will degrade faster within the time a person is exposed to sunlight. If the UV screening agent degrades, it loses the ability to absorb UV radiations and eventually results in a lower absorption profile, that translate into a lower SPF value.
If the absorption profile of a specimen, prepared from a UV screening agent-solvent combination, measured after a predefined exposure of 10 MED radiation, reads similar to that of its initial readings, then the UV screening agent is said to be stable in that particular combination of solvent.
Method of testing photostability: For each test formulations prepared according to Table-1 to Table-7, 1.80 mg/cm^2 of samples were deposited on PMMA (polymethyl methacrylate) plates and spread evenly using finger cots. Three plates were prepared for each product. The initial UV absorbance profile of each slide was measured with a UV-VIS spectrophotometer in the wavelength range of 290-400 nm. Four readings were taken for each slide. The test slides were then exposed to 10 MED radiation using a Solar Light LS1000R3 solar simulator. The slides were then equilibrated at room temperature for 15 minutes, and the UV absorbance profile post radiation was measured. The readings were then plotted to correlate initial absorbance behavior of the specimens to that of post radiation. Any degradation of the UV screening agent will result in a lower absorbance readings compared to that of the initial absorbance profile.
FIG. 1 to FIG. 6 illustrate graphs plotted based on UV absorbance profile measured before and after an exposure of 10 MED radiation on test specimens comprising combination of avobenzone and solvents selected from Table-8.

| Stability of Avobenzone | Stability of avobenzone-solvent combination (UV absorbance profile after 10 MED radiation vs initial, FIG. 1 to FIG. 6) | Compound |
| --- | --- | --- |
| not stable | highly instable | CC(CCOC(=O)c1ccccc1)OC(=O)c1ccccc1 (stereo not drawn) [1,3-Butylene glycol Dibenzoate] |
| not stable |  | Cc1ccc(C(=O)OC(C)c2ccccc2)cc1 (stereo not drawn) [1-Phenylethyl p-toluate] |
| not stable |  | CCC(OC(=O)c1ccccc1)c1ccccc1 (stereo not drawn) [1-Phenylpropyl Benzoate] |
| not stable |  | O=C(OCCC1CCCCC1)c1ccccc1 [2-Cyclohexylethyl Benzoate] |
| stable |  | O=C(OCCCc1ccccc1)c1ccccc1 [3-Phenylpropyl Benzoate] |
| not stable | highly instable | CC(C)(C)c1ccc(C(=O)OCc2ccccc2)cc1 [Benzyl 4-tert-Butylbenzoate] |
| stable |  | O=C(OCc1ccccc1)c1ccccc1 [Benzyl Benzoate] |
| not stable |  | Cc1cccc(C(=O)OCc2ccccc2)c1 [Benzyl m-toluate] |
| not stable | highly instable | O=C(OC1CCCCC1)c1ccccc1 [Cyclohexyl Benzoate] |
| not stable | highly instable | Cc1ccccc1C(=O)OC1CCCCC1 [Cyclohexyl o-toluate] |
| not stable | highly instable | CC(COC(=O)c1ccccc1)OC(=O)c1ccccc1 (stereo not drawn) [Propylene glycol Dibenzoate] |
| not stable |  | Cc1cccc(COC(=O)c2ccccc2)c1 [m-Methylbenzyl Benzoate] |
| not stable | highly instable | C12-C15 alkyl benzoate |

Further lines, the compound ahead of its results:

| Compound | Stability of Avobenzone | Stability of avobenzone-solvent combination (UV absorbance profile after 10 MED radiation vs initial, FIG. 1 to FIG. 6) |
| --- | --- | --- |
| O=C(OCCc1ccccc1)C1CCCCC1 [2-Phenylethyl Cyclohexanoate] | not stable |  |
| CCCCCC(=O)OCCc1ccccc1 [2-Phenylethyl Hexanoate] | not stable |  |
| CCC(=O)OCCc1ccccc1 [2-Phenylethyl Propionate] | not stable |  |
| Cc1ccccc1C(=O)OCCc1ccccc1 [2-Phenylethyl o-toluate] | stable | stable |
| CCc1ccc(C(=O)OCc2ccccc2)cc1 [Benzyl 4-Ethylbenzoate] | not stable |  |
| O=C(OCc1ccccc1)c1ccccc1O [Benzyl Salicylate] | not stable |  |
| Cc1ccccc1C(=O)OCc1ccccc1 [Benzyl o-toluate] | stable | stable |
| CCN(CC)C(=O)c1cccc(C)c1 [N,N-Diethyl m-toluamide] | not stable | highly instable |
| O=C(OCCc1ccccc1)c1ccccc1 [Phenethyl benzoate] | stable | stable |
| Cc1ccccc1COC(=O)c1ccccc1 [o-Methylbenzyl Benzoate] | not stable |  |

— US20240374492A1, “A SUNSCREEN COMPOSITION COMPRISING AVOBENZONE AND A METHOD FOR PHOTOSTABILIZATION” (ISP Investments LLC, priority 2021, published 2024)
